# Laboratory results taken from the CATMoS acute toxicity set (Mansouri et al. 2021).
# Assay: GHS categories as the set defines them, by LD50: 1 up to 5, 2 up to 50, 3 up to 300, 4 up to 2000, 5 above 2000 mg/kg
# Conditions: rat; in vivo; po
row,Compound,GHS category
1,CCN1CCN(C(=O)N[C@@H](C(=O)N[C@]2(OC)C(=O)N3C(C(=O)O)=C(CSc4nnnn4C)CS[C@@H]32)[C@H](C)O)C(=O)C1=O,5
2,COc1ccc(Br)cc1,4
3,Cc1cnc(C2=NC(=O)C(C)(C(C)C)N2)c(C(=O)O)c1 (centres undefined),5
4,CN1C(=O)COc2cc(C(=O)C=Cc3ccc(Cl)cc3)ccc21,5
5,CCC(=O)O[C@]1(C(=O)COC(C)=O)CC[C@H]2[C@@H]3C[C@H](C)C4=CC(=O)C=C[C@]4(C)[C@H]3[C@@H](O)C[C@@]21C,5
6,CC[N+](CC)(CC)CCOc1cccc(OCC[N+](CC)(CC)CC)c1OCC[N+](CC)(CC)CC,4
7,Nc1ccc(CCc2ccc(N)cc2)cc1,5
8,CCN(CCCCCCOC(=O)c1ccc(OC)c(OC)c1)C1CCc2ccccc2C1 (centres undefined),5
9,CCN(C(=O)CCCSc1nnnn1C)C1CCCCC1,4
10,CC(c1ccc2c(c1)Cc1ccccc1-2)S(=O)CC(=O)O (centres undefined),4
11,CC(=O)Oc1ccc(C(=C2CCCCC2)c2ccc(OC(C)=O)cc2)cc1,5
12,CN(C)C(=O)OC1N=C(c2ccccc2)c2cc(Cl)ccc2N(C)C1=O (centres undefined),5
13,Cc1cc(C)cc(N2C(=O)c3ccc4c5ccc6c7c(ccc(c8ccc(c3c48)C2=O)c75)C(=O)N(c2cc(C)cc(C)c2)C6=O)c1,5
14,Cc1cccc(C)c1NC(=O)CN1CCN(CCCC(c2ccc(F)cc2)c2ccc(F)cc2)CC1,5
15,CCCCCCCCCCCCCCCCCC(=O)OCCOCCO,5
16,O=C(O)CCCCCCCCCCC(=O)O,5
17,CC(=O)NCc1c(I)c(NC(C)=O)c(I)c(C(=O)O)c1I,5
18,O=C(Cn1cnnn1)N[C@@H]1C(=O)N2C(C(=O)O)=C(CSc3nncs3)CS[C@H]12,5
19,c1ccc2c(c1)CCc1ccccc1N2,5
20,C,5
21,NCCCC(N)(C(=O)O)C(F)F (centres undefined),5
22,Nc1nc(COc2ccc(Cl)cc2)nc(NCCc2ccccc2)n1,5
23,Cn1cc(C(=O)O)c(C(F)F)n1,5
24,Nc1nc(N)nc(Nc2nc(N)nc(N)n2)n1,5
25,CCCCOC(=O)CC(C)C,5
26,CC(C)=CCC(O)C1=CC(=O)c2c(O)ccc(O)c2C1=O (centres undefined),4
27,FC(F)(F)OC(Cl)C(F)(Cl)Cl (centres undefined),5

row,Compound,GHS category
1,CN(C)CCOc1nn(-c2cccc(C(F)(F)F)c2)c2ncccc12,4
2,O=C1NC(=O)C2CC=CCC12 (centres undefined),5
3,O=S(=O)(O)c1cc(-n2ncc(-c3ccccc3)n2)ccc1C=Cc1ccc(-n2ncc(-c3ccccc3)n2)cc1S(=O)(=O)O,5
4,COC(=O)c1c(C(F)F)nc(C(F)(F)F)c(C2=NCCS2)c1CC(C)C,5
5,COc1cc(NS(=O)(=O)c2ccccc2)c2c(c1N)C(=O)c1ccccc1C2=O,5
6,COC(=O)c1cc(Cl)ccc1OC(N)=O,5
7,O=C1CC[C@H]2CO[C@@H]1O2,5
8,O=S(=O)(O)Cc1ccccc1,4
9,O=C(Nc1ccccc1SSc1ccccc1NC(=O)c1ccccc1)c1ccccc1,5
10,CC(C)(C)C1CCC(OC(=O)OOC(=O)OC2CCC(C(C)(C)C)CC2)CC1 (centres undefined),5
11,CCCCCCCCCCCCCCCOS(=O)(=O)O,5
12,CC1(C(=O)O)CCCCC1,4
13,Fc1ccccc1C1=NCC(=S)N(CC(F)(F)F)c2ccc(Cl)cc21,5
14,CCCCC(C)OP(=S)(OCC)OCC (centres undefined),4
15,CCCc1c(Cc2ccc(-c3ccccc3-c3nn[nH]n3)cc2)c(=O)nc2nc(C)[nH]n12,4
16,C[Si]1(C)O[Si](C)(C)O[Si](C)(C)O[Si](C)(C)O[Si](C)(C)O[Si](C)(C)O1,5
17,CCCCCCCCOc1ccc(-c2ccc(C#N)cc2)cc1,5
18,CC(C)CCCCCCCCCCCCCC=CC1CC(=O)OC1=O (centres undefined),5
19,O=C1CCCCCCCCCOCCCCCO1,5
20,CCOC(=O)CSc1nc(C(C)(C)C)nn1C(=O)N(C)C,3
21,O=C(O[C@H]1[C@H](OC(=O)c2cccnc2)[C@@H](OC(=O)c2cccnc2)[C@H](OC(=O)c2cccnc2)[C@@H](OC(=O)c2cccnc2)[C@H]1OC(=O)c1cccnc1)c1cccnc1,5
22,C/C=C/C/C=C\CCCCCCCCOC(C)=O,4
23,CCCCCCCCOCCCCCCCC,5
24,Cc1c(C)c2c(c(C)c1OC(=O)C(C)(C)Oc1ccc(Cl)cc1)CC[C@@](C)(CCC[C@H](C)CCC[C@H](C)CCCC(C)C)O2,5
25,CC(C)COC(=O)OCN1C(=O)CN(CCN2CC(=O)N(COC(=O)OCC(C)C)C(=O)C2)CC1=O,5
26,CCOC(=O)C(=O)Nc1cc(SCCOC)nc(C)n1,4
27,Fc1c(F)c(F)c(Cl)c(F)c1F,5

row,Compound,GHS category
1,CCC(C)(C)c1ccc(OP(=O)(NC)OC)c(Cl)c1 (centres undefined),3
2,C=CC(=O)OCC1(CC)COCOC1,5
3,CCCS(=O)(=O)Nc1ccc(F)c(C(=O)c2c[nH]c3ncc(Br)cc23)c1F,5
4,NC(=O)NNC(N)=O,5
5,CCCC(C)c1ccc(OCC(=O)Cl)c(C(C)CCC)c1 (centres undefined),5
6,CC(C)(C)C1CCC(CC2=C(O)C(=O)c3ccccc3C2=O)CC1 (centres undefined),5
7,CC(=O)c1ccc2cc(CC(=O)O)ccc2c1,5
8,CO[C@H]1C=CO[C@@]2(C)Oc3c(C)c(O)c4c(O)c(c5c(nc6cc(C)ccn65)c4c3C2=O)NC(=O)C(C)=CC=C[C@H](C)[C@H](O)[C@@H](C)[C@@H](O)[C@@H](C)[C@H](OC(C)=O)[C@@H]1C,5
9,Cn1c(=O)oc2cc(C(=O)c3ccc(Cl)cc3)ccc21,5
10,NC(=O)NC(c1ccccc1)c1ccccc1,5
11,CCCCCCCCCCCCCCCCCC(=O)NP(=O)(OC)SC (centres undefined),3
12,Cc1[nH]c2ccc(O)cc2c1CC(=O)OCC(=O)O,5
13,C=CC1=C(C(=O)O)N2C(=O)[C@@H](NC(=O)C(=NOCC(=O)O)c3csc(N)n3)[C@H]2SC1,5
14,NC(N)=Nc1nc(CSCC/N=C/NS(=O)(=O)c2ccc(Br)cc2)cs1,5
15,N=C1C=CC2=CC(S(=O)(=O)O)=CC(=O)C2=C1NNc1ccc(-c2ccc(N=Nc3cc(S(=O)(=O)O)c4ccccc4c3N)cc2)cc1,5
16,Nc1ccc(S(=O)(=O)c2ccc(NCCO)cc2)cc1,5
17,CSCC[C@H](NC(=O)[C@H](Cc1c[nH]c2ccccc12)NC(=O)CCNC(=O)OC(C)(C)C)C(=O)N[C@@H](CC(=O)O)C(=O)N[C@@H](Cc1ccccc1)C(N)=O,3
18,OC(c1ccc(F)cc1F)c1cccnc1Cl (centres undefined),5
19,CCS(=O)c1c(C#N)nn(-c2c(Cl)cc(C(F)(F)F)cc2Cl)c1N (centres undefined),5
20,CCCCCCC(=O)OCC(CC)(COC(=O)CCCCCC)COC(=O)CCCCCC,5
21,Nc1ccc(C(=O)O)cc1,5
22,O=C(NNc1cccc(C(F)(F)F)c1)c1cccnc1Cl,4
23,CCCCCCCCCCCCCCCCOP(=O)(O)O,5
24,CCCCCCCCCCCC(=O)N(C)CC(=O)O,5
25,CCN(Cc1cccc(S(=O)(=O)O)c1)c1ccc(C(=C2C=CC(=[N+](CC)Cc3cccc(S(=O)(=O)O)c3)C=C2)c2ccccc2S(=O)(=O)[O-])cc1,5
